Results published in patent US20090280549A1, “Method for Treating Body Fluid” (priority 2005, published 2009).

Key:
platelets = assay: ATX-S10•Na(II) uptake into platelets; type: cell-based, human
Method: (§1) After labeling the compound represented by formula (II) above (hereinafter referred to as “ATX-S10•Na(II)”) with ^14C, the ATX-S10•Na(II) was dissolved in saline at a concentration of approximately 1×10^−3 mol/L, and the solution was filtered and sterilized with a 0.22 μm filter and then diluted with 1% FBS (fetal bovine serum)-containing RPMI1640 medium to prepare a 5×10^−5 mol/L ATX-S10•Na(II)-added solution.
Erythrocytes, platelets, neutrophils and lymphocytes were prepared from blood sampled from three healthy persons (designated as A, B and C).
The platelets were prepared from citric acid-treated blood. […]
After adding 400 μL of the cell suspension and 100 μL of the ATX-S10•Na(II)-added solution to each well of a 48-well microplate and mixing, the mixtures were incubated with a CO2 incubator (37° C., 5% CO2) or allowed to stand in a refrigerating chamber (approximately 4° C.). The cells were separated immediately after addition (0 hours after addition) and 1 hour, 3 hours, 20 hours and 44 hours after addition, and ATX-S10•Na(II) uptake into the cells (including cell surface binding) was measured. […]
The cell separation and uptake measurement were performed in the following manner. […] Then 4.5 mL of liquid scintillator was added and mixed therewith, and the radioactivity was measured for 5 minutes using a liquid scintillation counter. […]

[1] = system: THP-1 cells (human monocytic leukemia cells); assay: ATX-S10•Na(II) uptake into THP-1 cells; type: cell-based; details: for ATX-S10•Na(II) uptake: THP-1
Method: as §1
(§2) As malignant lymphoma cells and leukemia cells, there were used THP-1 cells (human monocytic leukemia cells), EoL-1 cells (human eosinophilic leukemia cells), A3/KAW cells (human malignant lymphoma cells) and KG-1 cells (human acute myeloid leukemia cells). All of the cells were cultured using 10% FBS-containing RPMI1640 medium, with subculturing 1 to 2 times per week during the culturing. The THP-1 cells and EoL-1 cells were obtained from RIKEN BioResource Center, and the A3/KAW cells and KG-1 cells were obtained from Japan Health Sciences Foundation.
(§3) After adding 400 μL of the cell suspension and 100 μL of the ATX-S10•Na(II)-added solution to each well of a 48-well microplate and mixing, the mixtures were incubated with a CO2 incubator (37° C., 5% CO2) or allowed to stand in a refrigerating chamber (approximately 4° C.). The cells were separated immediately after addition (0 hours after addition) and 1 hour, 3 hours, 20 hours and 44 hours after addition, and ATX-S10•Na(II) uptake into the cells (including cell surface binding) was measured. The uptake with standing at 4° C. corresponds to cell surface binding, and the value of the uptake with incubation at 37° C. minus the uptake with standing at 4° C. is presumed to correspond to the substantial ATX-S 10 Na(II) uptake for each type of cell.
(§4) The cell separation and uptake measurement were performed in the following manner. Specifically, 1 mL of 1.5% BSA (bovine serum albumin)-containing PBS solution (ice-cold) was placed in a 1.5 mL tube. The suspension of cells to be separated was gently pipetted and mixed, and a 100 μL portion was taken and superposed onto the 1.5% BSA-containing PBS solution. For each well, the cell suspension (300 μL) was dispensed into three tubes (n=3). After centrifugation (3200 rpm, 10 minutes, 4° C.), the medium and 1.5% BSA-containing PBS solution were removed by suction, and then the precipitate was suspended in 100 μL of PBS(−), and 1 mL of PBS(−) was further added and mixed therewith. After additional centrifugation (3000 rpm, 10 minutes, 4° C.), the supernatant was removed by suction, and the bottom of the tube, where the precipitate is present, was cut out and transferred to a counting vial. Then 4.5 mL of liquid scintillator was added and mixed therewith, and the radioactivity was measured for 5 minutes using a liquid scintillation counter. The measured radioactivity was used to calculate the ATX-S10•Na(II) uptake (pmol/10^5 cells) into the cells.

[2] = system: A3/KAW cells (human malignant lymphoma cells); assay: ATX-S10•Na(II) uptake into A3/KAW cells; type: cell-based; details: for ATX-S10•Na(II) uptake: A3/KAW
Method: as §1, §2, §3, §4

[3] = system: EoL-1 cells (human eosinophilic leukemia cells); assay: ATX-S10•Na(II) uptake into EoL-1 cells; type: cell-based; details: for ATX-S10•Na(II) uptake: EoL-1
Method: as §1, §2, §3, §4

[4] = system: THP-1 cells (activated macrophages) stimulated with PMA; assay: ATX-S10•Na(II) uptake into THP-1 cells stimulated with PMA; type: cell-based, human
Method: as §1, §2, §3, §4
Uptake into THP-1 cells was measured also with stimulation of the cells for approximately 24 hours with PMA (2 nmol/L, 5 nmol/L or 15 nmol/L) and addition of ATX-S10•Na(II) to the cell suspension immediately after removal of the PMA. THP-1 cells differentiate into macrophages upon stimulation with PMA.

[5] = 0 hr, immediately after addition

Question: How did the Aggregation of platelets (platelets; after incubation at 37° C. for 44 hours) turn out when C=Cc1c(C)c2cc3nc(cc4[nH]c(cc5nc(cc1[nH]2)C(C)=C5CCC(=O)NC(CC(=O)[O-])C(=O)[O-])c(CCC(=O)NC(CC(=O)[O-])C(=O)[O-])c4C)C(C)(O)/C3=C\C=NO.[Na+].[Na+].[Na+].[Na+] (centres unmarked) [ATX-S10•Na(II)] was run?
Answer: Aggregation of platelets was observed

Question: What about the “ATX-S10•Na(II) uptake” value (platelets; platelets) of the same molecule?
Answer: Almost no ATX-S10•Na(II) was taken up

Question: And the “ATX-S10•Na(II) uptake” value [1, 5]?
Answer: 0.56 pmol/10^5 cells

Question: What about the “ATX-S10•Na(II) uptake” value ([1]; 1 hr, incubation at 37° C.) of the same molecule?
Answer: 3.30 pmol/10^5 cells

Question: And the “ATX-S10•Na(II) uptake” value ([1]; 1 hr, standing at 4° C.)?
Answer: 1.43 pmol/10^5 cells

Question: What about the “ATX-S10•Na(II) uptake” value ([1]; 3 hr, incubation at 37° C.) of the same molecule?
Answer: 4.73 pmol/10^5 cells

Question: What about the “ATX-S10•Na(II) uptake” value ([1]; 3 hr, standing at 4° C.) of the same molecule?
Answer: 2.88 pmol/10^5 cells

Question: And the “ATX-S10•Na(II) uptake” value ([1]; 20 hr, incubation at 37° C.)?
Answer: 18.39 pmol/10^5 cells

Question: What about the “ATX-S10•Na(II) uptake” value ([1]; 20 hr, standing at 4° C.) of the same molecule?
Answer: 5.37 pmol/10^5 cells

Question: What about the “ATX-S10•Na(II) uptake” value ([1]; 44 hr, incubation at 37° C.) of the same molecule?
Answer: 33.21 pmol/10^5 cells

Question: What about the “ATX-S10•Na(II) uptake” value ([1]; 44 hr, standing at 4° C.) of the same molecule?
Answer: 1.94 pmol/10^5 cells

Question: What about the “uptake compared between cell types” value ([1]; THP-1 cells versus A3/KAW, KG-1 and EoL-1 cells) of the same molecule?
Answer: highest

Question: What about the “substantial uptake of ATX-S10•Na(II) (uptake at 37° C. minus uptake at 4° C.)” value ([1]; THP-1 cells, course over incubation time) of the same molecule?
Answer: increased with incubation time

Question: What about the “substantial uptake of ATX-S10•Na(II) (uptake at 37° C. minus uptake at 4° C.)” value ([2]; A3/KAW cells, course over incubation time) of the same molecule?
Answer: increased with incubation time

Question: And the “ATX-S10•Na(II) uptake” value [2, 5]?
Answer: 0.72 pmol/10^5 cells

Question: And the “ATX-S10•Na(II) uptake” value ([2]; 1 hr, incubation at 37° C.)?
Answer: 2.38 pmol/10^5 cells

Question: What about the “ATX-S10•Na(II) uptake” value ([2]; 1 hr, standing at 4° C.) of the same molecule?
Answer: 1.16 pmol/10^5 cells

Question: What about the “ATX-S10•Na(II) uptake” value ([2]; 3 hr, incubation at 37° C.) of the same molecule?
Answer: 3.79 pmol/10^5 cells

Question: What about the “ATX-S10•Na(II) uptake” value ([2]; 3 hr, standing at 4° C.) of the same molecule?
Answer: 1.06 pmol/10^5 cells

Question: And the “ATX-S10•Na(II) uptake” value ([2]; 20 hr, incubation at 37° C.)?
Answer: 10.06 pmol/10^5 cells

Question: What about the “ATX-S10•Na(II) uptake” value ([2]; 20 hr, standing at 4° C.) of the same molecule?
Answer: 1.44 pmol/10^5 cells

Question: And the “ATX-S10•Na(II) uptake” value ([2]; 44 hr, incubation at 37° C.)?
Answer: 27.64 pmol/10^5 cells

Question: And the “ATX-S10•Na(II) uptake” value ([2]; 44 hr, standing at 4° C.)?
Answer: 5.07 pmol/10^5 cells

Question: And the “ATX-S10•Na(II) uptake” value [3, 5]?
Answer: 0.32 pmol/10^5 cells

Question: And the “ATX-S10•Na(II) uptake” value ([3]; 1 hr, incubation at 37° C.)?
Answer: 0.25 pmol/10^5 cells

Question: What about the “ATX-S10•Na(II) uptake” value ([3]; 1 hr, standing at 4° C.) of the same molecule?
Answer: 0.30 pmol/10^5 cells

Question: What about the “ATX-S10•Na(II) uptake” value ([3]; 3 hr, incubation at 37° C.) of the same molecule?
Answer: 0.48 pmol/10^5 cells

Question: And the “ATX-S10•Na(II) uptake” value ([3]; 3 hr, standing at 4° C.)?
Answer: 0.32 pmol/10^5 cells

Question: And the “ATX-S10•Na(II) uptake” value ([3]; 20 hr, incubation at 37° C.)?
Answer: 1.59 pmol/10^5 cells

Question: And the “ATX-S10•Na(II) uptake” value ([3]; 20 hr, standing at 4° C.)?
Answer: 0.36 pmol/10^5 cells

Question: What about the “ATX-S10•Na(II) uptake” value ([3]; 44 hr, incubation at 37° C.) of the same molecule?
Answer: 3.09 pmol/10^5 cells

Question: And the “ATX-S10•Na(II) uptake” value ([3]; 44 hr, standing at 4° C.)?
Answer: 0.37 pmol/10^5 cells

Question: What about the “uptake compared between cell types” value ([3]; EoL-1 cells versus THP-1, A3/KAW and KG-1 cells) of the same molecule?
Answer: fairly low value

Question: And the “substantial uptake of ATX-S10•Na(II) (uptake at 37° C. minus uptake at 4° C.)” value ([3]; EoL-1 cells, course over incubation time)?
Answer: increased with incubation time

Question: What about the “uptake compared with unstimulated cells” value ([4]; THP-1 cells (activated macrophages) stimulated with PMA for 24 hours) of the same molecule?
Answer: higher than without stimulation with PMA

Question: And the “ATX-S10•Na(II) uptake” value ([4]; THP-1 stimulated with 2 nmol/L PMA, 0 hr, immediately after addition)?
Answer: 1.66 pmol/10^5 cells

Question: What about the “ATX-S10•Na(II) uptake” value ([4]; THP-1 stimulated with 2 nmol/L PMA, 3 hr, incubation at 37° C.) of the same molecule?
Answer: 6.66 pmol/10^5 cells

Question: What about the “ATX-S10•Na(II) uptake” value ([4]; THP-1 stimulated with 2 nmol/L PMA, 3 hr, standing at 4° C.) of the same molecule?
Answer: 7.05 pmol/10^5 cells

Question: And the “ATX-S10•Na(II) uptake” value ([4]; THP-1 stimulated with 2 nmol/L PMA, 20 hr, incubation at 37° C.)?
Answer: 11.75 pmol/10^5 cells

Question: And the “ATX-S10•Na(II) uptake” value ([4]; THP-1 stimulated with 2 nmol/L PMA, 20 hr, standing at 4° C.)?
Answer: 5.32 pmol/10^5 cells

Question: And the “ATX-S10•Na(II) uptake” value ([4]; THP-1 stimulated with 5 nmol/L PMA, 0 hr, immediately after addition)?
Answer: 2.07 pmol/10^5 cells

Question: And the “ATX-S10•Na(II) uptake” value ([4]; THP-1 stimulated with 5 nmol/L PMA, 3 hr, incubation at 37° C.)?
Answer: 11.37 pmol/10^5 cells

Question: What about the “ATX-S10•Na(II) uptake” value ([4]; THP-1 stimulated with 5 nmol/L PMA, 3 hr, standing at 4° C.) of the same molecule?
Answer: 8.48 pmol/10^5 cells

Question: What about the “ATX-S10•Na(II) uptake” value ([4]; THP-1 stimulated with 5 nmol/L PMA, 20 hr, incubation at 37° C.) of the same molecule?
Answer: 16.06 pmol/10^5 cells

Question: And the “ATX-S10•Na(II) uptake” value ([4]; THP-1 stimulated with 5 nmol/L PMA, 20 hr, standing at 4° C.)?
Answer: 7.53 pmol/10^5 cells

Question: And the “ATX-S10•Na(II) uptake” value ([4]; THP-1 stimulated with 15 nmol/L PMA, 0 hr, immediately after addition)?
Answer: 2.93 pmol/10^5 cells

Question: And the “ATX-S10•Na(II) uptake” value ([4]; THP-1 stimulated with 15 nmol/L PMA, 3 hr, incubation at 37° C.)?
Answer: 18.31 pmol/10^5 cells

Question: What about the “ATX-S10•Na(II) uptake” value ([4]; THP-1 stimulated with 15 nmol/L PMA, 3 hr, standing at 4° C.) of the same molecule?
Answer: 12.74 pmol/10^5 cells

Question: And the “ATX-S10•Na(II) uptake” value ([4]; THP-1 stimulated with 15 nmol/L PMA, 20 hr, incubation at 37° C.)?
Answer: 19.95 pmol/10^5 cells

Question: And the “ATX-S10•Na(II) uptake” value ([4]; THP-1 stimulated with 15 nmol/L PMA, 20 hr, standing at 4° C.)?
Answer: 9.13 pmol/10^5 cells
